Measured values as given in paper PMC4349960, “[^18F]FE@SUPPY: a suitable PET tracer for the adenosine A3 receptor? An in vivo study in rodents” (European Journal of Nuclear Medicine and Molecular Imaging, 2015).
pKi: −log10 of the molar value. Like-named read-outs stand apart in the source and are kept apart here.

Assays:
A3R = target: T1, A3R (Rattus norvegicus, UniProt P28647); assay: Small-animal PET in rats: baseline and A3R blocking scans; type: in vivo; settings: blocker 2 mg/kg i.v. 30 min before tracer; for reduction in brain AUC of [^18F]FE@SUPPY as compared with DMSO administration: 0-60 min
T1 construct: Adult male Sprague-Dawley rats; from tissue; host or cells: living Sprague-Dawley rats, brain volume of interest in PET
T1 sequence (P28647 1-320): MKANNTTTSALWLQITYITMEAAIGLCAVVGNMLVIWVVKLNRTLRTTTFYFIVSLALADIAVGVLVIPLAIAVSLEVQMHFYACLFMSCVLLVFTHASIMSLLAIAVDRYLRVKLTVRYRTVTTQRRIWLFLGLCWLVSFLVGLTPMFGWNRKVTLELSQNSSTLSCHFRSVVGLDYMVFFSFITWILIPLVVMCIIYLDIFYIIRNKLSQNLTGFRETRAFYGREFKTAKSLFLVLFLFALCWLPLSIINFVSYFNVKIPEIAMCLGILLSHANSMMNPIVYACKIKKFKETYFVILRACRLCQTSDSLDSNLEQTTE
Text: A microPET Focus220 scanner (Siemens, Medical Solutions) was used for the experiments. It has 168 detector modules providing a 7.6-cm axial and 22-cm transaxial field of view. The resolution of the reconstructed images (filtered back projection) was 1.3 mm (full-width at half-maximum) in the central field of view and remained under 2 mm within the central 5 cm diameter field of view. For PET imaging two groups of animals (rats and xenografted mice) were investigated. Rats were divided into four groups. The first group received vehicle (dimethyl sulphoxide, DMSO) intravenously via a lateral tail vein 30 min prior to radiotracer administration (three animals, 14.3 – 70.1 MBq, 0.2604 ± 0.06 μg). The second group received MRS1523 – a selective A3R antagonist – at a dose of 2 mg/kg body weight (dissolved in DMSO, 4 mg/mL) intravenously via a tail vein 30 min prior to radiotracer administration (three animals, 18.8 – 59.1 MBq, 0.3443 ± 0.05 μg). The third group received unlabelled title compound FE@SUPPY (dissolved in DMSO, 4 mg/mL) at a dose of 2 mg/kg 30 min before tracer administration (three animals, 9.7 – 16.1 MBq, 0.3926 ± 0.04 μg). In the final study group, the effect of P-glycoprotein inhibition was assessed by intravenous administration of 15 mg/kg TQD (freshly dissolved on each experimental day in 2.5 % aqueous dextrose solution and injected intravenously via a tail vein at a volume of 3 mL/kg over 1 min) 60 min prior to tracer administration (three animals, 13.9 – 26.8 MBq, 0.7451 ± 0.11 μg).
Anaesthetized animals were positioned in the imaging chamber of the microPET scanner, which was kept at 38 °C throughout the experiment. A stereotactic holder attached to the bed, consisting of ear plugs and a tooth bar, was used to fix the animal's head to ensure a reproducible position during the PET studies. [^18F]FE@SUPPY (27.91 ± 13.82 MBq) dissolved in 0.48 ± 0.22 mL phosphate-buffered saline (pH 7.4) was administered as a bolus via a tail vein. Dynamic PET imaging was performed over 60 min in all animals. At the end of the PET scan the animals were killed, a terminal blood sample was collected and whole brains were removed for testing of metabolite stability.
For all PET scans (rats and xenografted mice), list mode data were acquired with an energy window of 350 – 750 keV (rats) or 250 – 750 keV (mice) and a 6-ns timing window. Before each PET scan, a transmission scan using a ^57Co point source was recorded over 10 min. The PET data from the 60-min dynamic scans were sorted into three-dimensional sinograms according to the following frame sequence: 6 × 20 s, 5 × 60 s, 4 × 120 s, 3 × 300 s and 3 × 600 s. For the 90-min scans (in the xenografted mice) the following frame sequence was used: 8 × 5 s, 2 × 10 s, 2 × 30 s, 3 × 60 s, 2 × 150 s, 2 × 300 s, 4 × 600 s and 2 × 900 s. PET images were reconstructed by Fourier rebinning followed by filtered back projection with a ramp filter. The resulting voxel size was 0.6 × 0.6 × 0.8 mm for rats or 0.4 × 0.4 × 0.8 mm for mice. The standard data correction protocol (normalization, attenuation and decay correction) was applied to the data. A calibration factor for converting units of microPET images into absolute radioactivity concentration units was first generated by imaging a phantom filled with a known concentration of [^18F]FDG.
Rat brains were manually outlined on multiple planes of the PET summation images using the image analysis software PMOD 3.1 (Pmod Ltd, Zürich, Switzerland) or Amide. Volumes of interest in the brain or solid tissue mass (xenografts) were transferred to the PET images of the individual time frames and time–activity curves (TACs) expressed in units of kilobecquerels per millilitre were calculated. To facilitate comparison of TACs of different animals, radioactivity concentrations were normalized to dose and weight and expressed as standardized uptake value (SUV, %ID/cm^3 or %ID/g). […]

human A1R = tested on: human A1R; set-up: method as in earlier work; settings: cited from earlier work
human A2AR = tested on: human A2AR; set-up: method as in earlier work; settings: cited from earlier work
[1] = Ex vivo stability/metabolism in rat plasma and brain after pretreatment; set-up: species or system rats; settings: rats, after blocking treatment
Description: To determine the influence of the four treatments (vehicle, MRS1523, FE@SUPPY, TQD) on uptake of [^18F]FE@SUPPY, stability was assessed in plasma and brain 60 min after tracer injection. Final blood samples (3 mL) were collected in heparin-buffered tubes, rat brains were washed with ice-cold water and homogenized in 0.9 % aqueous NaCl solution (1 mL) using an IKA T10 basic Ultra-turrax (IKA Laboratory Equipment, Staufen, Germany). […] Sample clean-up was performed by vortexing plasma with the equivalent amount of methanol/acetonitrile (9:1) for 1 min and by subsequent ultracentrifugation (10,000 rpm, 5 min) to remove precipitated proteins. The supernatants obtained were analysed by radio-HPLC (Agilent, Boeblingen, Germany) equipped with a series 1100 autosampler, a series 1200 quaternary pump, a series 1200 diode array detector and a lead-shielded BGO radiodetector. A Chromolith® Performance RP-18e (100 × 4.6 mm, 5 μm) column with a Chromolith® Performance RP-18e (4 x4 mm, 5 μm) precolumn was eluted at a flow rate of 2 mL/min using a mobile phase consisting of 60 % acetonitrile and 40 % water/acetic acid 97.5:2.5 and 32 mM ammonium acetate, pH 3.5. UV detection was performed at a wavelength of 254 nm. The retention time of [^18F]FE@SUPPY was 4.6 – 5.9 min (UV detection and radiodetection).

rat A3R [2] = settings: cited from earlier work
rat A3R [3] = assay: Affinity for rat A3R (literature binding data); settings: ratio of Ki values
human A3R = target: human A3R; set-up: method as in PMID 10052977; settings: read-out: Ki, affinity for human A3R; cited from earlier work
[4] = target: T2, CHO cells expressing the human A3R (CHO-A3) (Homo sapiens, UniProt P0DMS8); assay: Xenograft mouse model PET (CHO vs CHO-A3 solid tissue masses); type: in vivo, mice; settings: xenografted mice, static image 1 h after injection
T2 construct: Karl-Norbert Klotz (University of Würzburg); host or cells: CHO cells stably transfected (CHO-A3), grown as subcutaneous masses in NMRI-nu/nu mice
T2 sequence (P0DMS8 1-318): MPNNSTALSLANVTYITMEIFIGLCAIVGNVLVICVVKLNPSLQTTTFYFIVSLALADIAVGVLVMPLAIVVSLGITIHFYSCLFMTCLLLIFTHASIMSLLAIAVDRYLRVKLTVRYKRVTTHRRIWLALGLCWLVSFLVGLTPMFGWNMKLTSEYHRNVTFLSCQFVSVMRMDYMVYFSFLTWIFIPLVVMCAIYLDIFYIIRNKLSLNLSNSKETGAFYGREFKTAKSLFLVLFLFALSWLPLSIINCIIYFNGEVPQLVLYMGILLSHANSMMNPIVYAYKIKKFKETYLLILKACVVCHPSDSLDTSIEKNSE
Description: Adult male Sprague-Dawley rats (Him:OFA; Animal Research Institute, Himberg, Austria) weighing 307 ± 35 g were kept under controlled environmental conditions (22 ± 1 °C, 40 – 70 % humidity, 12-h light/dark cycle) with free access to standard laboratory animal diet and tap water. Before being used in the experiments, the animals were allowed to adapt to the new conditions for at least a week. Prior to each experiment, the animals were placed in a chamber containing 2.5 % isoflurane in oxygen. When unconscious, the animals were taken from the chamber and kept under anaesthesia with 1.8 % isoflurane administered via a mask during the whole experiment. Pathogen-free, female NMRI-nu/nu mice (Taconic, Denmark) weighing 28.1 ± 0.8 g were housed under sterile conditions. Mice were injected subcutaneously into both upper flanks with 100 μL of a cell suspension in phosphate-buffered saline containing 10^6 CHO cells (right side) or 10^6 CHO-A3 cells (left side). During the imaging periods of 60 or 90 min (rats or xenografted mice, respectively) the isoflurane level was adjusted depending on the depth of anaesthesia. A humidifier was used to moisten the gas mixture before supplying it to the animal.
Around 17 days after cell inoculation, animals in the xenograft group were positioned in the imaging chamber and a dynamic 90-min PET scan was initiated at the start of [^18F]FE@SUPPY injection (2.21 ± 0.75 MBq dissolved in 100 μl physiological saline, pH 7.4; three animals) via a tail vein under isoflurane anaesthesia (2 %). Additionally, in this group, [^18F]FDG PET was performed 1 day prior to the [^18F]FE@SUPPY experiments. […] In brief, mice were deprived of food for 6 – 8 h before [^18F]FDG injection via a tail vein. Mice had access to drinking water at all times. Body warming was achieved by placing the entire cage on a heating pad kept at 38 °C. Warming was started around 30 min before tracer injection and was continued throughout the uptake and imaging period. [^18F]FDG (6.03 ± 1.31 MBq dissolved in 100 μL physiological saline, pH 7.4; three animals) was injected via a tail vein under isoflurane anaesthesia (2 %). Mice were kept under isoflurane anaesthesia throughout the whole uptake and imaging period. A 10-min static image was acquired at 1 h after [^18F]FDG injection. […]
For all PET scans (rats and xenografted mice), list mode data were acquired with an energy window of 350 – 750 keV (rats) or 250 – 750 keV (mice) and a 6-ns timing window. Before each PET scan, a transmission scan using a ^57Co point source was recorded over 10 min. […] A calibration factor for converting units of microPET images into absolute radioactivity concentration units was first generated by imaging a phantom filled with a known concentration of [^18F]FDG. […]

[5] = read-out: Ki, affinity for rat A3R

Compound	reduction in peak brain activity of [^18F]FE@SUPPY as compared with DMSO administration (A3R)	reduction in brain AUC of [^18F]FE@SUPPY as compared with DMSO administration (A3R)	reduction in plasma concentration of [^18F]FE@SUPPY at 60 min after injection [1]	pKi (rat A3R [2]; [5])	further results
CCSC(=O)c1c(CC)nc(-c2ccccc2)c(C(=O)OCCF)c1CC [FE@SUPPY]	16.7%	5.4%	27%	6.22	affinity for human A1R (human A1R): micromolar range; affinity for human A2AR (human A2AR): micromolar range
CCCOC(=O)c1c(-c2ccccc2)nc(CC)c(C(=O)SCC)c1CCC [MRS1523, reference compound]	34.1%	27.6%	36%	6.95	fold higher affinity of MRS1523 for rat A3R compared with FE@SUPPY (rat A3R [3]): 5.31 fold
CCSC(=O)c1c(CC)nc(-c2ccccc2)c(C(=O)OCCF)c1CC [[^18F]FE@SUPPY, 5-(2-[^18F]fluoroethyl)-2,4-diethyl-3-(ethylsulfanylcarbonyl)-6-phenylpyridine-5-carboxylate]					pKi (human A3R): 8.38; pKi (rat A3R [2]; read-out: Ki, affinity towards rat A3R): 6.22
[^18F]FDG [reference compound]					uptake in CHO tissue mass [4]: 5.4 %ID/g; uptake in CHO-A3 tissue mass [4]: 6.3 %ID/g
